Values joined by “and” are separate entries in the source; they are usually repeats but may differ in a detail not shown here. Equal values may be shown once. Active and inactive are the calls of the source.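 The calls were made as follows: active = protection of heart cells from peroxide damage with half-maximal concentration of 20 µM or lower (some results past the limit were not filed as active); inactive = the rest.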
What follows are molecules tested on HL-1 cardiomyocytes, H2O2 injury, ATPLite viability, 2 h (assay: protection of HL-1 cardiomyocytes from peroxide, SAR follow-up, HL-1 cells, set 2 (AID 624460)).
In the case of `COc1ccc2c(c1OC)C(=O)N1c3ccccc3C(=O)N(Cc3cccc(Cl)c3)C21` (stereo not drawn), the EC50 is reported as > 79 µM (inactive). `CCN(CC(=O)Nc1ccc(OC)cc1)C(=O)c1cc(-c2cc(OC)c(OC)c(OC)c2)nc2ccccc12` was tested, and the EC50 was 9.39 µM. With `COc1cc(-c2cc(C(=O)Nc3cccc(C(F)(F)F)c3)c3ccccc3n2)cc(OC)c1OC` the EC50 was > 79 µM (inactive). `COc1cc(-c2cc(C(=O)Nc3cccc(F)c3)c3ccccc3n2)cc(OC)c1OC` was tested, and the EC50 was 16.4 µM (inactive). With `COc1ccc(-c2cc(C(=O)Nc3cccc(C(C)=O)c3)c3ccccc3n2)cc1OC` the EC50 was > 79 µM (inactive). In the case of `CC(=O)c1cccc(NC(=O)c2cc(-c3ccccc3)nc3ccccc23)c1`, the EC50 is reported as > 79 µM (inactive). `COc1ccc2c(c1OC)C(=O)N1c3ccccc3C(=O)N(c3ccc(C(C)(C)C)cc3)C21` (stereo not drawn) was tested, and the EC50 was > 79 µM (inactive). `COc1cc(-c2cc(C(=O)Nc3cccc(C(C)=O)c3)c3cc(Cl)ccc3n2)cc(OC)c1OC` was tested, and the EC50 was 3.26 µM. For `O=C1c2ccccc2N2C(=O)c3ccccc3C2N1c1ccccc1` (stereo not drawn), the EC50 was > 79 µM (inactive). `COc1cccc(N2C(=O)c3ccccc3N3C(=O)c4ccccc4C23)c1` (stereo not drawn) was tested, and the EC50 was > 79 µM (inactive). In the case of `COc1ccc2c(c1OC)C(=O)N1c3ccccc3C(=O)N(Cc3ccccc3Cl)C21` (stereo not drawn), the EC50 is reported as > 79 µM (inactive). For `CCN(CC(=O)Nc1ccc(OC)cc1)C(=O)c1cc(-c2cccs2)nn1-c1ccccc1`, the EC50 was 70.2 µM (inactive) and > 79 µM (inactive). For `COc1ccc(N2C(=O)c3ccccc3N3C(=O)c4c(ccc(OC)c4OC)C23)cc1` (stereo not drawn), the EC50 was 23.5 µM (inactive). With `COc1ccc(NC(=O)c2cc(-c3cc(OC)c(OC)c(OC)c3)nc3ccccc23)cc1` the EC50 was 10.2 µM (inactive). With `CCOC(=O)c1cccc(NC(=O)c2cc(-c3cc(OC)c(OC)c(OC)c3)nc3ccccc23)c1` the EC50 was 3.15 µM. With `COc1cccc(CNC(=O)c2cc(-c3ccc(OC)c(OC)c3)nc3ccccc23)c1` the EC50 was 10.6 µM (inactive). With `COc1cc(-c2cc(C(=O)Nc3cccc(C)c3)c3ccccc3n2)cc(OC)c1OC` the EC50 was > 79 µM (inactive). `CCN(CC(=O)Nc1ccccc1)C(=O)c1cc(-c2cccs2)nn1-c1ccccc1` was tested, and the EC50 was > 79 µM (inactive). Molecule `COc1cccc(NC(=O)c2cc(-c3cc(OC)c(OC)c(OC)c3)nc3ccccc23)c1` has an EC50 of 9.39 µM. `COc1cccc(N2C(=O)c3ccccc3N3C(=O)c4c(ccc(OC)c4OC)C23)c1` (stereo not drawn) was tested, and the EC50 was > 79 µM (inactive). In the case of `COc1ccc(-c2cc(C(=O)Nc3cccc(C(C)=O)c3)c3ccccc3n2)cc1`, the EC50 is reported as > 79 µM (inactive). In the case of `O=C1c2ccccc2N2C(=O)c3ccccc3C2N1c1cccc(Br)c1` (stereo not drawn), the EC50 is reported as > 79 µM (inactive). In the case of `COc1ccc2c(c1OC)C(=O)N1c3ccccc3C(=O)N(c3cccc(C)c3)C21` (stereo not drawn), the EC50 is reported as 60.3 µM (inactive). With `COc1ccc2c(c1OC)C(=O)N1c3ccccc3C(=O)N(c3cccc(Cl)c3)C21` (stereo not drawn) the EC50 was > 79 µM (inactive). In the case of `CCN(CC(=O)Nc1ccc(F)cc1)C(=O)c1cc(-c2cccs2)nn1-c1ccccc1`, the EC50 is reported as > 79 µM (inactive). `COc1cccc(-c2cc(C(=O)Nc3cccc(C(C)=O)c3)c3ccccc3n2)c1` was tested, and the EC50 was > 79 µM (inactive). For `COc1ccc2c(c1OC)C(=O)N1c3ccccc3C(=O)N(c3cccc(C(F)(F)F)c3)C21` (stereo not drawn), the EC50 was > 79 µM (inactive). For `COc1ccc2c(c1OC)C(=O)N1c3ccccc3C(=O)N(c3ccc(Br)cc3)C21` (stereo not drawn), the EC50 was > 79 µM (inactive). With `COc1cc(-c2cc(C(=O)Nc3cccc(C(C)=O)c3)c3ccccc3n2)cc(OC)c1OC` the EC50 was 1.47 µM and 8.54 µM. For `COc1cc(-c2cc(C(=O)Nc3ccc(C(C)=O)cc3)c3ccccc3n2)cc(OC)c1OC`, the EC50 was 9.93 µM. In the case of `COc1ccc2c(c1OC)C(=O)N1c3ccccc3C(=O)N(c3ccc(C)cc3)C21` (stereo not drawn), the EC50 is reported as > 79 µM (inactive). With `COc1ccc2c(c1OC)C(=O)N1c3ccccc3C(=O)N(c3cccc(F)c3)C21` (stereo not drawn) the EC50 was 34.7 µM (inactive). `COc1ccc2c(c1OC)C(=O)N1c3ccccc3C(=O)N(c3ccccc3)C21` (stereo not drawn) was tested, and the EC50 was > 79 µM (inactive). `CCN(CC(=O)Nc1ccc(C)cc1)C(=O)c1cc(-c2cccs2)nn1-c1ccccc1` was tested, and the EC50 was > 79 µM (inactive). In the case of `COc1cc(-c2cc(C(=O)Nc3cccc(Cl)c3)c3ccccc3n2)cc(OC)c1OC`, the EC50 is reported as > 79 µM (inactive). In the case of `COc1cc(-c2cc(C(=O)Nc3ccccc3)c3ccccc3n2)cc(OC)c1OC`, the EC50 is reported as > 79 µM (inactive). `COc1cccc(CNC(=O)c2cc(-c3cc(OC)c(OC)c(OC)c3)nc3ccccc23)c1` was tested, and the EC50 was 10.7 µM (inactive). With `COc1ccc2c(c1OC)C(=O)N1c3ccccc3C(=O)N(c3cccc(Br)c3)C21` (stereo not drawn) the EC50 was 3.29 µM and > 79 µM (inactive).

Reference: PubChem BioAssay AID624460 (Sanford-Burnham Center for Chemical Genomics, 2012)
